Measured values from patent US9149480B2, “Use of meloxicam for the long-term treatment of musculoskeletal disorders in cats” (Boehringer Ingeleheim Vetmedica GmbH, priority 2010, dated 2015).

System: cats
Assay: Retrospective study of long-term meloxicam treatment in aged cats with osteoarthritis: progression of renal disease versus matched untreated controls
Assay type: in vivo, cat
Conditions: for progression of renal disease: maintenance dose of 0.02 mg/kg; for progression of renal parameters: median maintenance dose 0.02 mg/kg daily; for loss of urine concentrating ability / weight loss: time adjusted AUC change from baseline, Wilcoxon rank-sum-test
Description: The medical records of a feline-only practice were searched for cats with OA being treated with meloxicam during a 4 year period. A diagnosis of OA was based upon any two of the following: owner noted mobility changes and/or physical examination findings or radiographic changes. Cats included were older than 7 years and treated with meloxicam for a duration of more than 6 months. Complete medical records were available for review. Biochemistry, urinalysis and body weight were regularly monitored. The progression of renal disease in the aged non-renal and renal group treated was compared to age matched and IRIS matched untreated controls from the same clinic.
The database of a feline-only practice in suburban Melbourne was searched for cats which had been treated for chronic musculoskeletal disorders with meloxicam (Metacam oral suspension, Boehringer Ingelheim) during a 4 year period. The diagnosis of osteoarthritis or spondylosis deformans had been made based upon any two of the following: owner noted mobility changes, physical examination findings or radiographic changes. The inclusion criteria included cats greater than 7 years old which had been treated continuously with meloxicam for a duration of more than 6 months and which had complete medical records available for review. In addition, cats were only included if serum biochemistry, urine analysis and body weight had been regularly monitored.
Young cats were excluded, as were cats with no pre-treatment renal parameter measurements. In addition cats were also excluded if the owner could not be contacted to check that the cats were still receiving daily treatment with meloxicam.
Age, breed, sex, concomitant diseases and medications as well as date treatment commenced, treatment duration and daily dose of meloxicam were recorded.
The presence or absence of pre-treatment renal disease and staging of the renal disease was carried out using plasma creatinine and urine specific gravity according to the following recognised International Renal Interest Society criteria (IRIS staging 2006):
The treated cats were then subdivided into two groups: the renal treated group that belonged to IRIS stage 1-3 and were pre-treated, and the non-renal treated group that has no identifiable renal disease pre-treatment. Urine specific gravity, serum creatinine and bodyweight were used as indicators of renal disease progression. The progression of renal disease was then compared to age and IRIS matched untreated controls were then randomly identified from the database of the same clinic.
The median age of the renal and non-renal treated cats, median treatment duration and median maintenance dose was calculated.
The progression of renal disease in the non-renal treated group was compared to the age matched untreated controls. The progression of renal disease in the treated renal-diseased group was compared to age matched and IRIS matched untreated controls from the same clinic. Statistical analysis was carried out using a time adjusted area-under-the-curve (AUC) changes from baseline time 0 until the last recorded value (n).
The Wilcoxon rank-sum-test was used to compare the groups. With this nonparametric test the distribution of the adjusted AUC of two groups was compared regarding the location. Under the null hypothesis it is assumed that there is no location shift in the distributions of the two treatment groups. If the resulting p-value is lower than the two-sided significance level of 5% the null hypothesis is rejected.

[1] = non-renal group treated with meloxicam vs non-renal group not treated
[2] = renal group treated with meloxicam vs age and IRIS matched untreated renal group

progression of renal parameters (non-renal group treated with meloxicam vs non-renal group not treated, median treatment duration 400 days): no differences
loss of urine concentrating ability [1]: no statistically significant differences
weight loss [1]: no statistically significant differences
progression of renal parameters (renal group (IRIS stage 1-3) treated with meloxicam vs age and IRIS matched untreated renal group, median treatment duration 527 days): no differences
loss of urine concentrating ability [2]: no statistically significant differences
weight loss [2]: no statistically significant differences
Structure (SMILES): Cc1cnc(NC(=O)C2=C(O)c3ccccc3S(=O)(=O)N2C)s1 [meloxicam]
progression of renal disease (aged cats with pre-existent stable IRIS stage 1-3 renal disease): does not hasten progression of renal disease
progression of renal disease (aged cats): does not hasten progression of renal disease
median maintenance dose after dose titration to the lowest effective dose (daily, oral suspension, both the renal treated and non-renal treated groups): 0.02 mg/kg
mean serum creatinine concentration increase over time (renal group treated with meloxicam vs renal untreated group): increased statistically significantly less
